Columns and labels:
[1] = target: T1, human M2 receptor (human Muscarinic receptor subtype 2) (Homo sapiens, UniProt P08172); test: hM2 receptor GTPγS binding; format: biochemical; conditions: CHO membranes expressing hM2, GTPγ35S binding; for EC50: read-out: hM2_EC50
T1 construct: purchased Perkin-Elmer RBHM2M; host or cells: Chinese hamster ovary cells (CHO), membranes
T1 sequence (P08172 1-466): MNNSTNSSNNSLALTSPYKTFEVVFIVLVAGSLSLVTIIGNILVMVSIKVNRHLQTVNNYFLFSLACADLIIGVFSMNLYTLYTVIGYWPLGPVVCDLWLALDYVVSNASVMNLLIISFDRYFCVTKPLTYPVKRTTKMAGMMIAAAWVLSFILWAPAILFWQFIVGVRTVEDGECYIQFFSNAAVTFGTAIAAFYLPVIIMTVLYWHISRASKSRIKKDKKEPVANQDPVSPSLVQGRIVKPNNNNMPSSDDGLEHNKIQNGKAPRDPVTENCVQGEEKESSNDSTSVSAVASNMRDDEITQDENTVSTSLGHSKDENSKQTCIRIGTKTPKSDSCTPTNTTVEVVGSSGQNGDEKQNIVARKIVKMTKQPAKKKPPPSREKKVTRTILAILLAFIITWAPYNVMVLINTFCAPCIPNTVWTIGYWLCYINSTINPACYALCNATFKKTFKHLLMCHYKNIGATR
Description: hM2 Receptor GTPyS Binding
Membranes produced from Chinese hamster ovary cells (CHO) expressing the cloned human M2 receptor (human Muscarinic receptor subtype 2, gene bank access NM_000739), were obtained from Perkin-Elmer (RBHM2M). The membranes were thawed at 37° C., passed 3 times through a 23-gauge blunt-end needle, diluted in the GTPγS binding buffer (50 mM Hepes, 20 mM NaOH, 100 mM NaCl, 1 mM EDTA, 5 mM MgCl2, pH 7.4, 100 μM DTT). The EC50, IC50 and Emax of the compounds of the invention were evaluated from 10-point dose-response curves (three fold concentration range) done in 60 μl in 384-well non-specific binding surface plate (Corning). Ten microliters from the dose-response curves plate (5× concentration) were transferred to another 384 well plate containing the following: 10 μg of hM2 membranes, 500 μg of Flashblue beads (Perkin-Elmer) and GDP in a 25 μl volume. An additional 15 μl containing 3.3× (55000 dpm) of GTPγ^35S (0.4 nM final) were added to the wells resulting in a total well volume of 50 μl. Basal and maximal stimulated GTPγ^35S binding was determined in absence and presence of 30 μM of acetylcholine agonist. The membranes/beads mix were pre-incubated for 15 minutes at room temperature with 25 μM GDP prior to distribution in plates (12.5 μM final). The reversal of acetylcholine-induced stimulation (2 μM final) of GTPγ^35S binding was used to assay the antagonist properties (IC50) of the compounds. The plates were incubated for 60 minutes at room temperature with shaking, then centrifuged at 2000 rpm for 5 minutes. The radioactivity (cpm) was counted in a Trilux (Perkin-Elmer).
Values of EC50, IC50 and Emax were obtained using sigmoidal fits of a non-linear curve-fitting program (XLfit version 5.0.6 from ID Business Solutions Limited, Guildford, UK) of percent-stimulated GTPγ^35S binding vs. log (molar ligand).
All EC50 and IC50 values are reported as geometric means of ‘n’ independent experiments. […] The IC50 was the concentration of the compound of the invention at which 50% inhibition of acetylcholine GTPγ^35S binding stimulation has been observed.

[2] = target: T2, hM1 (human Muscarinic receptor subtype 1) (Homo sapiens, UniProt P11229); test: Human M1 calcium mobilization FLIPR assay; format: cell-based; conditions: CHO cells expressing hM1, FLIPR; for EC50: read-out: hM1EC50; for Emax: read-out: hM1Emax
T2 construct: expressed in transfected cells; host or cells: CHO cells (chinese hamster ovary cells, ATCC)
T2 sequence (P11229 1-460): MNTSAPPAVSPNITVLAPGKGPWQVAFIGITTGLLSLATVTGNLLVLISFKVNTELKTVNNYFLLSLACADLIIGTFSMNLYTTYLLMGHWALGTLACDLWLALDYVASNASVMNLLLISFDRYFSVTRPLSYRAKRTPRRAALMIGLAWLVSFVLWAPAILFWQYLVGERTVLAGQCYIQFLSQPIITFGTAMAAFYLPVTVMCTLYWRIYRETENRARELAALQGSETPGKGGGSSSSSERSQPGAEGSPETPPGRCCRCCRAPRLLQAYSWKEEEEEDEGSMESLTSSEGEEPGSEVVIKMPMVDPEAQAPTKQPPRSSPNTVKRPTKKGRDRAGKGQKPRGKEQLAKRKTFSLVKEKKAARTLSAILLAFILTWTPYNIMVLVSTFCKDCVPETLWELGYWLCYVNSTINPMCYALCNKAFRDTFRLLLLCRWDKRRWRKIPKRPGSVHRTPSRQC
Description: The compound activity in the present invention (EC50 or IC50) was measured using a 384 plate-based imaging assay that monitors drug induced intracellular Ca^2+ release in whole cells. Activation of hM1 (human Muscarinic receptor subtype 1, gene bank access NM_000738), rM1 (rat Muscarinic receptor subtype 1, gene bank access NM_080773), hM3 (human Muscarinic receptor subtype 3, gene bank access NM_000740NM_000740) and hM5 (human Muscarinic receptor subtype 5, gene bank access NM_0121258) receptors expressed in CHO cells (chinese hamster ovary cells, ATCC) was quantified in a Molecular Devices FLIPR II™ instrument as an increase in fluorescent signal. Inhibition of hM3 and hM5 by compounds was determined by the decrease in fluorescent signal in response to 2 nM acetylcholine activation.
CHO cells were plated in 384-black polylysine coated plate (Costar) at 8000 cells/well/50 μl for 24 hours or 4000 cells/well for 48 hours in a humidified incubator (5% CO2 and 37° C.) in DMEM/F12 medium without selection agent. Prior to the experiment the cell culture medium was removed from the plates by inversion. A loading solution of 30 μl of Hank's balanced salt solution, 10 mM Hepes and 2.5 mM Probenicid at Ph 7.4 (Cat no. 311-520-VL, Wisent) with 2 μM calcium indicator dye (FLUO-3AM, Molecular Probes F14202) was added to each well. Plates were incubated at 37° C. for 60 minutes prior to start the experiment. The incubation was terminated by washing the cells four times in assay buffer, leaving a residual 25 μl buffer per well. Cell plates were then transferred to the FLIPR, ready for compound additions.
The day of experiment, acetylcholine and compounds were diluted in three-fold concentration range (10 points serial dilution) for addition by FLIPR instrument. For all calcium assays, a baseline reading was taken for 30 seconds followed by the addition of 12.5 μl (25 μl for hM1 and rM1) of compounds, resulting in a total well volume of 37.5 μl (50 μl for hM1 and rM1). Data were collected every 1.6 seconds for 300 seconds. For hM3 and hM5 an additional 12.5 μl of acetylcholine (2 nM final) was added at 300 seconds. After this addition of acetylcholine (producing a final volume of 50 μl), the FLIPR continued to collect data every 2 seconds for 240 seconds. The fluorescence emission was read using filter 1 (emission 520-545 nm) by the FLIPR on board CCD camera.
Calcium mobilization output data were calculated as the maximal relative fluorescence unit (RFU) minus the minimal value for both compound and agonist reading frame (except for hM1 and rM1 using only the maximal RFU). Data were analyzed using sigmoidal fits of a non-linear curve-fitting program (XLfit version 5.0.6 from ID Business Solutions Limited, Guildford, UK). All EC50 and IC50 values are reported as geometric means of ‘n’ independent experiments.

| Emax [1] [%] | EC50 [1] [nM] | EC50 [2] [nM] | Emax [2] [%] | Compound |
| --- | --- | --- | --- | --- |
| 30 | 1080 | 157 | 75 | CCOC[C@@H]1CCCN(C[C@H]2CCCC[C@@H]2NC(=O)C2CCCCC2)C1 [N-((1S,2R)-2-{[(3R)-3-(ethoxymethyl)piperidin-1-yl]methyl}cyclohexyl)cyclohexanecarboxamide] |
| > 12 | > 30000 | 130 | 70 | O=C(N[C@H]1CCCC[C@@H]1CN1CCCCCC1)c1ccc(-n2cccn2)cc1 [N-[(1S,2R)-2-(azepan-1-ylmethyl)cyclohexyl]-4-(1H-pyrazol-1-yl)benzamide] |
| 0 | > 30000 | 26 | 82 | O=C(N[C@H]1CCCC[C@@H]1CN1CCCCC1)c1ccc(-n2cccn2)nc1 [N-[(1S,2R)-2-(piperidin-1-ylmethyl)cyclohexyl]-6-(1H-pyrazol-1-yl)nicotinamide] |
| 22 | 216 | 5 | 95 | C=CCOC[C@@H]1CCCN(C[C@H]2CCCC[C@@H]2NC(=O)c2ccc(-n3ccnc3)nc2)C1 [N-[(1S,2R)-2-({(3R)-3-[(allyloxy)methyl]piperidin-1-yl}methyl)cyclohexyl]-6-(1H-imidazol-1-yl)nicotinamide] |

Source: US20070259888A1, “Novel Compounds” (ASTRAZENECA AB, priority 2006, published 2007)
